The NIST ThermoML archive (doi:10.1021/je5009729)
± gives the expanded uncertainty stated by the source.

What was measured:
[1] = Molar enthalpy of transition or fusion; details: DSC
[2] = for vapor or sublimation pressure: Gas chromatography; for Normal melting temperature / Triple point temperature: DTA

CCCCCCCCCCCCCCCCCCCCCCCC(=O)O [lignoceric acid]
Molar enthalpy of transition or fusion ([1]; Crystal 1): 20.2 ± 0.454 kcal/mol
Molar enthalpy of transition or fusion ([1]; Crystal 3): 1.18 ± 0.0621 kcal/mol
vapor or sublimation pressure ([2]; 298 K, Crystal): 4e-14 kPa
vapor or sublimation pressure ([2]; 298.15 K, Liquid): 1.1e-11 kPa
Normal melting temperature ([2]; Crystal 1): 83.4 ± 0.5 °C
Triple point temperature ([2]; Crystal 2): 351 ± 1 K
Triple point temperature ([2]; Crystal 3): 347 ± 1 K

CCCCCCCC/C=C\CCCCCCCCCC(=O)O [(11Z)-eicosenoic acid]
vapor or sublimation pressure ([2]; 298.15 K, Liquid): 1.18e-09 kPa

CCCCCC/C=C\CCCCCCCC(=O)O [cis-9-hexadecenoic acid]
vapor or sublimation pressure ([2]; 298.15 K, Liquid): 6.9e-08 kPa

CCCCCCCC/C=C\CCCCCCCC(=O)O [(Z)-9-octadecenoic acid]
vapor or sublimation pressure ([2]; 298.15 K, Liquid): 1.01e-08 kPa

CCCCCCCCCCCCCCCCCCCCCCCCCC(=O)O [hexacosanoic acid]
Molar enthalpy of transition or fusion ([1]; Crystal 2): 21.2 ± 0.621 kcal/mol
vapor or sublimation pressure ([2]; 298.15 K, Crystal): 8e-15 kPa
vapor or sublimation pressure ([2]; 298.15 K, Liquid): 2.5e-12 kPa
Normal melting temperature ([2]; Crystal 1): 85.7 ± 0.7 °C
Triple point temperature ([2]; Crystal 2): 354.3 ± 0.5 K

CCCCCCCC/C=C\CCCCCCCCCCCCCC(=O)O [(Z)-tetracos-15-enoic acid]
Molar enthalpy of transition or fusion ([1]; Crystal): 14.4 ± 0.359 kcal/mol
vapor or sublimation pressure ([2]; 298 K, Crystal): 2.7e-12 kPa
vapor or sublimation pressure ([2]; 298.15 K, Liquid): 1e-11 kPa
Normal melting temperature ([2]; Crystal): 42 ± 1 °C

CCCCCCCCCCC/C=C\CCCCC(=O)O [(Z)-6-octadecenoic acid]
vapor or sublimation pressure ([2]; 298.15 K, Liquid): 1.13e-08 kPa

CC/C=C\C/C=C\C/C=C\C/C=C\C/C=C\C/C=C\CCC(=O)O [cis-4,7,10,13,16,19-docosahexaenoic acid]
vapor or sublimation pressure ([2]; 298.15 K, Liquid): 2.2e-11 kPa

CCCCCC=CCC=CCC=CCC=CCCCC(=O)O [5,8,11,14-eicosatetraenoic acid]
vapor or sublimation pressure ([2]; 298.15 K, Liquid): 6.5e-10 kPa
